Reference: US10280169B2, “Biaryl bruton's tyrosine kinase inhibitors” (BIOGEN MA INC., priority 2013, dated 2019)

Key:
BTK = target: T1, BTK (Homo sapiens, UniProt Q06187); experiment: In vitro BTK kinase assay: BTK-POLYGAT-LS assay; type: biochemical; details: 10 uM ATP, read-out: IC50 (10 uMATP)
T1 construct: purchased Upstate 14-552

pBTK = target: T2, pBTK (Homo sapiens, UniProt Q06187); experiment: In vitro PD assay in whole blood (pBTK assay); type: cell-based; details: 30 min at 37° C.
T2 construct: Heparinized venous blood was purchased from Bioreclamation, Inc. or SeraCare Life Sciences; tissue Bioreclamation, Inc. or SeraCare Life Sciences; host or cells: heparinized venous whole blood
Protocol: Heparinized venous blood was purchased from Bioreclamation, Inc. or SeraCare Life Sciences and shipped overnight. Whole blood was aliquoted into 96-well plate and “spiked” with serial dilutions of test compound in DMSO or with DMSO without drug. The final concentration of DMSO in all wells was 0.1%. The plate was incubated at 37° C. for 30 min. Lysis buffer containing protease and phosphatase inhibitors was added to the drug-containing samples and one of the DMSO-only samples (+PPi, high control), while lysis buffer containing protease inhibitors was added to the other DMSO-only samples (−PPi, low control). All of the lysed whole blood samples were subjected to the total BTK capture and phosphotyrosine detection method described in Example 30. ECL values were graphed in Prism and a best-fit curve with restrictions on the maximum and minimum defined by the +PPi high and −PPi low controls was used to estimate the test compound concentration that results in 50% inhibition of ECL signal by interpolation.
In some instances where a compound tested has activity “D”, other structurally similar compounds beyond the measurable limits of the assay are not included in Table 2.

T2 sequence (Q06187 whole entry): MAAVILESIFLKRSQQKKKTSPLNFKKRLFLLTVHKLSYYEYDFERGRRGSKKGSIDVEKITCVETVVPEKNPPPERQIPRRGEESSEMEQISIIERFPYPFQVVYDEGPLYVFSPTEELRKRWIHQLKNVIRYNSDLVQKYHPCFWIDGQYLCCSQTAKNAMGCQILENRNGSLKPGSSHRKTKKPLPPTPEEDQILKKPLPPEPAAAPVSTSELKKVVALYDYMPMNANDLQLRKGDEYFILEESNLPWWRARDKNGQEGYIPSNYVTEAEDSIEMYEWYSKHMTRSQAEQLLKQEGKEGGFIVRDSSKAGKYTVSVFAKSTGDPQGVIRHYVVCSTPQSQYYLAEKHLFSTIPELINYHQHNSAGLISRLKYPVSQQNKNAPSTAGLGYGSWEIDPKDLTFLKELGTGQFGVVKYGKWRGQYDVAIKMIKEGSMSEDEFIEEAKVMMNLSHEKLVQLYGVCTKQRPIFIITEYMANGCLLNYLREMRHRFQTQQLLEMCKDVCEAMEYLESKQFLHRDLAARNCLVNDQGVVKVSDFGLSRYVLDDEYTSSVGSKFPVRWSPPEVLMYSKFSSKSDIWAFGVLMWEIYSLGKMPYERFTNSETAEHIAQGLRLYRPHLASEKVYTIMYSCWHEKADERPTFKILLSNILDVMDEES
T1 sequence (Q06187 whole entry): as above

| SMILES | IC50 (BTK) [nM] | IC50 (pBTK) [nM] |
| --- | --- | --- |
| Cc1cc(-c2ncnc3cc[nH]c23)ccc1CNC(=O)c1cc2c(s1)CCCC2 [Example I-116, N-(2-methyl-4-(5H-pyrrolo[3,2-d]pyrimidin-4-yl)benzyl)-4,5,6,7-tetrahydrobenzo[b]thiophene-2-carboxamide] | < 10 | 1500 to 10000 |
| CC(C)(C)c1csc(C(=O)NC2CCCc3cc(-c4ncnc5[nH]ncc45)ccc32)n1 (stereo in doubt) [Example I-100, (R)—N-(6-(1H-pyrazolo[3,4-d]pyrimidin-4-yl)-1,2,3,4-tetrahydronaphthalen-1-yl)-4-(tert-butyl)thiazole-2-carboxamide] | < 10 | 1500 to 10000 |
| Cc1cc(-c2ncnc3cc(C4=CCN(C(=O)N(C)C)CC4)[nH]c23)ccc1CNC(=O)c1ncc(C(C)(C)C)s1 [Example I-18, 5-(tert-butyl)-N-(4-(6-(1-(dimethylcarbamoyl)-1,2,3,6-tetrahydropyridin-4-yl)-5H-pyrrolo[3,2-d]pyrimidin-4-yl)-2-methylbenzyl)thiazole-2-carboxamide] | < 10 | < 500 |
| Cc1cc(-c2ncnc3nc(N4CCOCC4)[nH]c23)ccc1CNC(=O)c1cnc(C(C)(C)C)s1 [Example I-48, 2-(tert-butyl)-N-(2-methyl-4-(8-morpholino-7H-purin-6-yl)benzyl)thiazole-5-carboxamide] | < 10 | < 500 |
| Cc1cc(-c2ncnc3[nH]c(C4=CCN(C(=O)N(C)C)CC4)cc23)ccc1CNC(=O)c1cnc(C(C)(C)C)s1 [Example I-19, 2-(tert-butyl)-N-(4-(6-(1-(dimethylcarbamoyl)-1,2,3,6-tetrahydropyridin-4-yl)-7H-pyrrolo[2,3-d]pyrimidin-4-yl)-2-methylbenzyl)thiazole-5-carboxamide] | < 10 | < 500 |
| Cn1cc(-c2cc3c(-c4ccc5c(c4)CCCC5NC(=O)c4cc5c(s4)CCOC5)ncnc3[nH]2)cn1 (stereo not drawn) [Example I-35, N-(6-(6-(1-methyl-1H-pyrazol-4-yl)-7H-pyrrolo[2,3-d]pyrimidin-4-yl)-1,2,3,4-tetrahydronaphthalen-1-yl)-6,7-dihydro-4H-thieno[3,2-c]pyran-2-carboxamide] | < 10 | 500 to 1500 |
| Cc1cc(-c2ncnc3[nH]c(-c4cnn(C)c4)cc23)ccc1CNC(=O)c1cnc(C(C)(C)C)s1 [Example I-26, 2-(tert-butyl)-N-(2-methyl-4-(6-(1-methyl-1H-pyrazol-4-yl)-7H-pyrrolo[2,3-d]pyrimidin-4-yl)benzyl)thiazole-5-carboxamide] | < 10 | < 500 |
| Cc1cc(-c2ncnc3[nH]ncc23)ccc1CNC(=O)c1cc2c(s1)CCCC2 [Example I-85, N-(2-methyl-4-(1H-pyrazolo[3,4-d]pyrimidin-4-yl)benzyl)-4,5,6,7-tetrahydrobenzo[b]thiophene-2-carboxamide] | < 10 | 1500 to 10000 |
| CC(C)(C)c1csc(C(=O)NC2CCCc3cc(-c4ncnc5[nH]ncc45)ccc32)n1 (stereo not drawn) [Example I-98, N-(6-(1H-pyrazolo[3,4-d]pyrimidin-4-yl)-1,2,3,4-tetrahydronaphthalen-1-yl)-4-(tert-butyl) thiazole-2-carboxamide] | < 10 | > 10000 |
| Cc1cc(-c2ncnc3[nH]c(-c4cnn(C)c4)cc23)ccc1C(C)NC(=O)c1cnc(C(C)(C)C)s1 (stereo not drawn) [Example I-112, 2-(tert-butyl)-N-(1-(2-methyl-4-(6-(1-methyl-1H-pyrazol-4-yl)-7H-pyrrolo[2,3-d]pyrimidin-4-yl)phenyl)ethyl)thiazole-5-carboxamide] | < 10 | < 500 |
| Cc1cc(-c2ncnc3[nH]ccc23)ccc1CNC(=O)c1ccc(C(C)(C)C)cn1 [Example I-1, 5-(tert-butyl)-N-(2-methyl-4-(7H-pyrrolo[2,3-d]pyrimidin-4-yl)benzyl)picolinamide] | < 10 | 1500 to 10000 |
| Cc1cc(-c2ncnc3[nH]ccc23)ccc1CNC(=O)c1ccc(C(C)(C)C)cc1 [Example I-2, 4-(tert-butyl)-N-(2-methyl-4-(7H-pyrrolo[2,3-d]pyrimidin-4-yl)benzyl)benzamide] | < 10 | 1500 to 10000 |
| Cc1cc(-c2ncnc3nc(N4CCC(C(=O)O)CC4)[nH]c23)ccc1CNC(=O)c1cnc(C(C)(C)C)s1 [Example I-52, 1-(6-(4-((2-(tert-butyl)thiazole-5-carboxamido)methyl)-3-methylphenyl)-7H-purin-8-yl)piperidine-4-carboxylic acid] | < 10 | < 500 |
| O=C(N[C@H]1CCCc2cc(-c3ncnc4[nH]ccc34)ccc21)c1cc2c(s1)CCCC2 [Example I-89, (S)—N-(6-(7H-Pyrrolo[2,3-d]pyrimidin-4-yl)-1,2,3,4-tetrahydronaphthalen-1-yl)-4,5,6,7-tetrahydrobenzo[b]thiophene-2-carboxamide] | < 10 | 1500 to 10000 |
| O=C(NCc1ccc(-c2ncnc3[nH]ccc23)cc1C(F)(F)F)c1nc2c(s1)CCCC2 [Example I-122, N-(4-(7H-pyrrolo[2,3-d]pyrimidin-4-yl)-2-(trifluoromethyl)benzyl)-4,5,6,7-tetrahydrobenzo[d]thiazole-2-carboxamide] | 10 to 99 | 1500 to 10000 |
| Cc1cc(-c2ncnc3[nH]c(-c4cnn(C)c4)cc23)ccc1C(CO)NC(=O)c1cc2c(s1)CCOC2 (stereo not drawn) [Example I-32, N-(2-hydroxy-1-(2-methyl-4-(6-(1-methyl-1H-pyrazol-4-yl)-7H-pyrrolo[2,3-d]pyrimidin-4-yl)phenyl)ethyl)-6,7-dihydro-4H-thieno[3,2-c]pyran-2-carboxamide] | < 10 | < 500 |
| Cc1cc(-c2ncnc3cc(-c4cnn(C)c4)[nH]c23)ccc1CNC(=O)c1cc2c(s1)CCOC2 [Example I-42, N-(2-methyl-4-(6-(1-methyl-1H-pyrazol-4-yl)-5H-pyrrolo[3,2-d]pyrimidin-4-yl)benzyl)-6,7-dihydro-4H-thieno[3,2-c]pyran-2-carboxamide] | < 10 | < 500 |
| Cc1cc(-c2ncnc3cc(-c4cnn(C)c4)[nH]c23)ccc1CNC(=O)N1CC(OC(C)C)C1 [Example I-43, 3-isopropoxy-N-(2-methyl-4-(6-(1-methyl-1H-pyrazol-4-yl)-5H-pyrrolo[3,2-d]pyrimidin-4-yl)benzyl)azetidine-1-carboxamide] | < 10 | 500 to 1500 |
